Experimental data reported in US20130178609A1, “MODULAR CONSTRUCTION OF LIPOPHOSPHOLIPIDS” (Centre National de la Recherche Scientifique - CNRS, priority 2010, published 2013).
Where “and” joins values, the source holds several entries; their conditions need not be identical. Equal values may be shown once.

Assay: Fluorescence excitation/emission maxima and molar absorption of the fluorescent phospholipids in EtOH
Assay type: physicochemical

CCCCCCCC/C=C\CCCCCCCCOP(=O)(NCc1cn(-c2cc3ccc(O)cc3oc2=O)nn1)OCCCCCCCC/C=C\CCCCCCCC [Compound 4a]
λmax,em: 425 nm and 479 nm | λmax,exc: 349 nm and 412 nm
